From patent US20070293434A9, “Binding polypeptides and methods based thereon” (priority 2000, published 2007)

Target: BLyS (Homo sapiens, UniProt Q9Y275)
Test: Fluorescence anisotropy determination of BLyS-ligand dissociation constants
Type: binding
Protocol: Dissociation constants between the synthetic peptides and BLyS (free in solution) were measured by fluorescence anisotropy (FA). In these experiments, the concentration of the fluorescein-labeled peptide is held constant and the BLyS protein concentration was varied. […] Binding reactions containing 50 nM fluorescein-labeled peptide and a varied concentration of BLyS in a volume between 10 and 20 μL per well were performed in 384 well microplates. Reactions were assayed using a Tecan Polarion fluorescence polarization plate reader. Cross-competition studies between peptides were performed using 50 nM fluorescein-labeled peptide and 1-2 μM BLyS in the presence and absence of 100 μM unlabeled peptide. […] Other buffers in which dissociation constants of BLyS Binding polypeptides were […] include: […] […] The KD of several BLyS binding BAML peptides was determined by fluorescence anisotropy, performed as previously described.

Chain of BLyS (Q9Y275 134-285 limits assumed): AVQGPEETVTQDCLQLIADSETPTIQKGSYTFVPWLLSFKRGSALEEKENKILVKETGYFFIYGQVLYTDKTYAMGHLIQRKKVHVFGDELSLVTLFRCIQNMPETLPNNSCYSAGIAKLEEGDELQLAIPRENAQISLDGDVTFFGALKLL

Ac-ANWYDSLTKLWLPDGGK-fitc [DX822]
improvement in binding affinity for BLyS as compared to 453-01-B07 (compared to 453-01-B07 (SEQ ID NO:31)): more than 10 fold

Ac-ANWYDPLTKLSLPDGGK-fitc [DX818]
decrease in affinity compared to DX814 (compared to DX814): approximately 10 fold
